Data published in US5204475A, “Substituted 3-aminosydnone imines and salts thereof” (Cassella Aktiengesellschaft, priority 1990, dated 1993).

System: spiral strips of the pulmonary artery of the guinea-pig
Experiment: Relaxation of potassium-depolarised, CaCl2-contracted spiral strips of the pulmonary artery of the guinea-pig (modified method of Godfraind and Kaba and of Schuman et al.)
Details: depolarised with 40 mmol/1 potassium, contraction by 0.5 mmol/1 CaCl2; for IC50: Cavia porcellus, cumulative addition, average of 4 to 6 vessel strips, read-out: IC50 (concentration of the test substance which inhibits the contraction by 50%)
Method: The pharmacological action of the compounds of the formula I was determined by a modified method of Godfraind and Kaba (Arch. Int. Pharmacodyn. Ther. I96, (Suppl) 35 to 49, 1972) and of Schuman et al. (Naunyn-Schmiedeberg's Arch Pharmacol. 289, 409 to 418, 1975). In this connection, spiral strips of the pulmonary artery of the guinea-pig are depolarised with 40 mmol/1 of potassium after equilibration in calcium-free Tyrode solution. An addition of 0.5 mmol/1 of CaCl2 then induces a contraction. The relaxing action of the test substance is determined by cumulative addition in 1/2 log 10 stepped concentrations. From the concentration-effect curve (abscissa: -log mol/1 of test substance, ordinate: % inhibition of the maximum contraction, average value of 4 to 6 vessel strips), the concentration of the test substance is determined which inhibits the contraction by 50% (=IC50, mol/1). The duration of action of the test substance is given by the time which is needed after the addition of the test substance until the starting value is obtained again.

SMILES	IC50 [µM]	Duration of action in minutes (time needed after addition of the test substance until the starting value is obtained again) [min]
Cl.N=c1c[n+](N2CCCCC2C(=O)O)[n-]o1 (stereo not drawn) [Example 1, 3-(2-Carboxypiperidino)sydnone imine hydrochloride]	6	> 300
Cl.N=c1c[n+](N2CCC(C(=O)O)CC2)[n-]o1 [Example 2, 3-(4-Carboxypiperidino)sydnone imine hydrochloride]	24	> 300
Cl.N=c1c[n+](N2CCC[C@H]2C(=O)O)[n-]o1 [Example 3, (S)-3-(2-Carboxypyrrolidino)sydnone imine hydrochloride]	20	> 300
